Experimental data reported in ChEMBL document CHEMBL4665893, “Scalable Synthesis, In Vitro cccDNA Reduction, and In Vivo Antihepatitis B Virus Activity of a Phosphonomethoxydeoxythreosyl Adenine Prodrug” (J Med Chem, 2020).
Active and inactive are the calls of the source. No cut-off for these calls is given here.

Legend:
[1] = Toxicity in C57BL/6 female mouse assessed as reduction in lymphocytes level at 60 mg/kg, po for 14 days by hematology analysis; format: organism-based; details: in vivo, 336 h, time 14 day
[2] = Toxicity in C57BL/6 male mouse assessed as increase in neutrophils level at 60 mg/kg, po for 14 days by hematology analysis; format: organism-based; details: in vivo, 336 h, time 14 day
Hepatitis B virus [3] = experiment: Antiviral activity against adenovirus AdH294-WT harboring wild-type HBV genotype D accession #V01460 infected in human HepG2 cells assessed as reduction in viral replicative intermediate DNA level at 1100 nM incubated for 5 days by Southern blot analysis (reference value: 100%); format: functional; set-up: scale not given: the % may be the effect or the level left; details: time 5 day
Hepatitis B virus [4] = experiment: Antiviral activity against ETV-resistant and adenovirus AdH294-7LR harboring wild-type HBV infected in human HepG2 cells assessed as reduction in viral replicative intermediate DNAs at 4 to 1000 nM incubated for 5 days by Southern blot analysis; format: functional, organism-based; details: time 5.0 day
[5] = Toxicity in C57BL/6 female mouse assessed as effect on organ weight level at 60 mg/kg, po for 14 days; format: organism-based; details: in vivo, 336 h, time 14 day
[6] = Toxicity in C57BL/6 mouse assessed as induction of body weight loss at 60 mg/kg, po for 14 days relative to control; format: organism-based; details: in vivo, 336 h, time 14 day
Hepatitis B virus [7] = experiment: Antiviral activity against ETV-resistant and adenovirus AdH294-7LR harboring wild-type HBV infected in human HepG2 cells assessed as viral replicative intermediate DNA level at 13 nM incubated for 5 days by Southern blot analysis (reference value: 100%); format: functional; details: time 5 day
[8] = Toxicity in C57BL/6 female mouse assessed as increase in thymus weight level at 60 mg/kg, po for 14 days; format: organism-based; details: in vivo, 336 h, time 14 day
[9] = Toxicity in C57BL/6 male mouse assessed as reduction in food consumption loss at 60 mg/kg, po for 11 days relative to control; format: organism-based; details: in vivo, 264 h, time 11 day
[10] = Toxicity in C57BL/6 male mouse assessed as reduction in lymphocytes level at 60 mg/kg, po for 14 days by hematology analysis; format: organism-based; details: in vivo, 336 h, time 14 day
[11] = Toxicity in HBV infected hydrodynamic injection C57BL/6 mouse model assessed as effect on body weight at 0.6 to 60 mg/kg, po QD for 6 days; format: organism-based; details: in vivo, 144 h, dose 0.6-60 mg/kg, time 6 day
Hepatitis B virus [12] = experiment: Antiviral activity against adenovirus AdH294-WT harboring wild-type HBV genotype D accession #V01460 infected in human HepG2 cells assessed as reduction in viral replicative intermediate DNAs incubated for 5 days by Southern blot analysis; format: functional, organism-based; details: genotype D accession #V01460, HepG2, 120 h
Hepatitis B virus [13] = experiment: Antiviral activity against HBV infected hydrodynamic injection C57BL/6 mouse model assessed as reduction in serum HBV DNA level at 0.6 to 60 mg/kg, po QD for 6 days by qPCR analysis; format: functional, organism-based; details: dose mg/kg 0.6-60, time 6.0 day
Hepatitis B virus [14] = experiment: Antiviral activity against adenovirus AdH294-WT harboring wild-type HBV genotype D accession #V01460 infected in human HepG2 cells assessed as reduction in viral replicative intermediate DNA level at 120 nM incubated for 5 days by Southern blot analysis (reference value: 100%); format: functional; set-up: scale not given: the % may be the effect or the level left; details: time 5 day
[15] = Genotoxicity in Salmonella typhimurium TA100 assessed as increase in number of spontaneous revertants colonies by Ames test; format: toxicity; details: salmonella enterica subsp. enterica serovar typhimurium, 1 µM
Hepatitis B virus [16] = experiment: Antiviral activity against ETV-resistant and adenovirus AdH294-7LR harboring wild-type HBV infected in human HepG2 cells assessed as viral replicative intermediate DNA level at 40 nM incubated for 5 days by Southern blot analysis (reference value: 100%); format: functional; details: time 5 day
[17] = Toxicity in C57BL/6 female mouse assessed as reduction in erythrocytes level at 60 mg/kg, po for 14 days by hematology analysis; format: organism-based; details: in vivo, 336 h, time 14 day
[18] = Toxicity in C57BL/6 female mouse assessed as reduction in hemoglobin level at 60 mg/kg, po for 14 days by hematology analysis; format: organism-based; details: in vivo, 336 h, time 14 day
[19] = Genotoxicity in Salmonella typhimurium TA1537 assessed as increase in number of spontaneous revertants colonies by Ames test; format: toxicity; details: salmonella enterica subsp. enterica serovar typhimurium, 1 µM
Hepatitis B virus [20] = experiment: Antiviral activity against ETV-resistant and adenovirus AdH294-7LR harboring wild-type HBV infected in human HepG2 cells assessed as viral replicative intermediate DNA level at 1100 nM incubated for 5 days by Southern blot analysis (reference value: 100%); format: functional; details: time 5 day
[21] = Toxicity in C57BL/6 female mouse assessed as effect on clinical chemistry level at 60 mg/kg, po for 14 days; format: organism-based; details: in vivo, 336 h, time 14 day
Hepatitis B virus [22] = experiment: Antiviral activity against ETV-resistant and adenovirus AdH294-7LR harboring wild-type HBV infected in human HepG2 cells assessed as viral replicative intermediate DNA level at 3300 nM incubated for 5 days by Southern blot analysis (reference value: 100%); format: functional; details: time 5 day
[23] = Toxicity in C57BL/6 mouse assessed as induction of mortality at 60 mg/kg, po for 14 days; format: organism-based; details: in vivo, 336 h, time 14 day
Hepatitis B virus [24] = experiment: Antiviral activity against ETV-resistant and adenovirus AdH294-7LR harboring wild-type HBV infected in human HepG2 cells assessed as viral replicative intermediate DNA level at 10000 nM incubated for 5 days by Southern blot analysis (reference value: 100%); format: functional; details: time 5 day
Hepatitis B virus [25] = experiment: Antiviral activity against HBV infected in human HepDE19 cells assessed as reduction in HBV cccDNA incubated for 9 days by qPCR analysis; format: functional, organism-based; details: HepDE19, 216 h

SMILES: CC(C)CCOC(=O)C[C@H](NP(=O)(CO[C@H]1CO[C@@H](n2cnc3c(N)ncnc32)C1)Oc1ccccc1)C(=O)OCCC(C)C (mixture of isomers)
- Activity [1]: Non-Toxic
- Activity [2]: Toxic
- Activity (Hepatitis B virus [3]): 0.7%
- Activity (Hepatitis B virus [4]): Active
- Activity [5]: Non-Toxic
- Activity [6]: 4%
- Activity (Hepatitis B virus [7]): 101.5%
- Activity [8]: Toxic
- Activity [9]: Toxic
- Activity [10]: Toxic
- Activity [11]: Non-Toxic
- EC50 (Hepatitis B virus [12]): < 4 nM
- Activity (Hepatitis B virus [13]): Active
- Activity (Hepatitis B virus [14]): 7.5%
- Activity [15]: Non-Toxic
- Activity (Hepatitis B virus [16]): 59.1%
- Activity [17]: Non-Toxic
- Activity [18]: Non-Toxic
- Activity [19]: Non-Toxic
- Activity (Hepatitis B virus [20]): 18.1%
- Activity [21]: Non-Toxic
- Activity (Hepatitis B virus [22]): 11.7%
- Activity [23]: Non-Toxic
- Activity (Hepatitis B virus [24]): 5.9%
- IC50 (Hepatitis B virus [25]): 6 nM
- IC90 (Hepatitis B virus [25]; time 9 day): 70 nM
